Literature values as cited in patent US20240108740A1, “THERAPEUTIC COMPOSITIONS INCLUDING SPN10 AND USES THEREOF” (Stealth BioTherapeutics Inc., priority 2022, published 2024).
Non-standard residues stand in square brackets, D forms with d.

Experiments:
[1] = test system: several mammalian cell types; conditions: energy-independent manner; Zhao et al. 2003; cited from earlier work
[2] = test system: cell stress recovery; conditions: Mitchell et al., bioRxiv; cited from earlier work

| Substance | penetration of the plasma membrane [1] | performance compared with SS-31 (cell culture assays, structure-activity analysis) [2] |
| --- | --- | --- |
| H-2′,6′-Dmt-D-Arg-Phe-Lys-NH2 | readily penetrates the plasma membrane | – |
| H-F[dR]FK-NH2 [SS-20, reference compound] | – | consistently outperformed SS-31 |
| H-D-Arg-Tyr-Lys-Phe-NH2 (H-[dR]YKF-NH2; SMILES N=C(N)NCCC[C@@H](N)C(=O)N[C@@H](Cc1ccc(O)cc1)C(=O)N[C@@H](CCCCN)C(=O)N[C@@H](Cc1ccccc1)C(N)=O) [SPN4, reference compound] | – | consistently outperformed SS-31 |
